Read-outs that look alike come from different tables or passages of the source.
Tests used:
Assay in all cases: Ambit kinase profiling, competition binding
CSNK1G3 = biological target: T1, CSNK1G3 (Homo sapiens, UniProt Q9Y6M4); details: for % Competition: 10 µM
T1 construct: purchased Ambit Biosciences (KINOMEscan)
Procedure: (§1) Also included in the kinase profile are four isoforms of PKC (δ, ε, η, θ) and eight isoforms of CAMKs (CAMKIα, δ, γ; CAMKIIα, β, δ, γ; CAMK4).
(§2) The global kinase profiling experiment was performed by Ambit Biosciences.

CAMKIγ = biological target: T2, CAMKIγ (Homo sapiens, UniProt Q96NX5); details: for competition: CAMKIγ, 10 µM
T2 construct: purchased Ambit Biosciences (KINOMEscan)
Procedure: as §1, §2

CAMK4 = biological target: T3, CAMK4 (Homo sapiens, UniProt Q16566); details: for competition: 10 µM
T3 construct: purchased Ambit Biosciences (KINOMEscan)
T3 sequence (Q16566 1-473): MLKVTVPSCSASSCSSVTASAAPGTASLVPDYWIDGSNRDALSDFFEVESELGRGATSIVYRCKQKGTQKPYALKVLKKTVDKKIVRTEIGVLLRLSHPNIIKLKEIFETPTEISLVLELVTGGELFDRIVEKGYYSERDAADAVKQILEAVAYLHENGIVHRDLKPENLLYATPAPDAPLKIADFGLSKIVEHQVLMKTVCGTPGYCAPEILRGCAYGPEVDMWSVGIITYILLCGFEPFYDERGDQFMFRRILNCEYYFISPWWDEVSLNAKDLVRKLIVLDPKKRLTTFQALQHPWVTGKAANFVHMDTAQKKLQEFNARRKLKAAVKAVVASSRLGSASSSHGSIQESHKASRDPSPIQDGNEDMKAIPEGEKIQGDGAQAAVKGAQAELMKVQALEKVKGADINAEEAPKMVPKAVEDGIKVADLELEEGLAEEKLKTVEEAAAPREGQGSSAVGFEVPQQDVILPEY
Procedure: as §1, §2

CLK1 = biological target: T4, CLK1 (Homo sapiens, UniProt P49759)
T4 construct: purchased Ambit Biosciences (KINOMEscan)
Procedure: as §1, §2

STK35 = biological target: T5, STK35 (Homo sapiens, UniProt Q8TDR2)
T5 construct: purchased Ambit Biosciences (KINOMEscan)
Procedure: as §1, §2

TNNI3K = biological target: T6, TNNI3K (Homo sapiens, UniProt Q59H18)
T6 construct: purchased Ambit Biosciences (KINOMEscan)
T6 sequence (Q59H18 1-835): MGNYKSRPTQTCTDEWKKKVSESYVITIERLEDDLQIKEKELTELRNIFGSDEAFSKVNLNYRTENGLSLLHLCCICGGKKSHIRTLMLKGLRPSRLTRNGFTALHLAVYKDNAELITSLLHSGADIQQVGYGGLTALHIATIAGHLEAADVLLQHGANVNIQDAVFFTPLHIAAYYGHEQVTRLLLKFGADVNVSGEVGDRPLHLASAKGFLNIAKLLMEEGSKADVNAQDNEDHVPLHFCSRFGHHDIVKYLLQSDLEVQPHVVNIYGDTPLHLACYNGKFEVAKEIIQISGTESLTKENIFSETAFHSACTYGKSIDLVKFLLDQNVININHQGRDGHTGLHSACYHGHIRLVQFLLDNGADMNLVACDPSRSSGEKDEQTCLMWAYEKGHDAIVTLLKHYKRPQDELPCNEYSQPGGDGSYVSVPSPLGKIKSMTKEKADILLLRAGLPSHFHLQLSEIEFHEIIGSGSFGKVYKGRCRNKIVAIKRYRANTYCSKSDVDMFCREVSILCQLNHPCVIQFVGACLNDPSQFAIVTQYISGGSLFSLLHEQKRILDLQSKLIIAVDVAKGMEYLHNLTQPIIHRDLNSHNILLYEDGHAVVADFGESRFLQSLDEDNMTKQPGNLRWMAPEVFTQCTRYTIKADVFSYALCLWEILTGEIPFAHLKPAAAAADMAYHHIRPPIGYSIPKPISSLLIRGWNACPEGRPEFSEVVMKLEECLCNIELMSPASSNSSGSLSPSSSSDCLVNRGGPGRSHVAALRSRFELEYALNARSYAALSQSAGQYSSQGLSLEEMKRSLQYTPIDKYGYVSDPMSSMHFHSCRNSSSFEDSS
Procedure: as §1, §2

SLK = biological target: T7, SLK (Homo sapiens, UniProt Q9H2G2)
T7 construct: purchased Ambit Biosciences (KINOMEscan)
Procedure: as §1, §2

[1] = biological target: T8, EGFR(L747-E749del, A750P) (Homo sapiens, UniProt P00533, A750P/DEL747-749); details: for % Competition: 10 µM
T8 construct: purchased Ambit Biosciences (KINOMEscan)
Procedure: as §1, §2

[2] = biological target: T9, EGFR(L747-S752del, P753S) (Homo sapiens, UniProt P00533, DEL747-752/P753S); details: for % Competition: 10 µM
T9 construct: purchased Ambit Biosciences (KINOMEscan)
Procedure: as §1, §2

MUSK = biological target: T10, MUSK (Homo sapiens, UniProt O15146)
T10 construct: purchased Ambit Biosciences (KINOMEscan)
T10 sequence (O15146 24-869): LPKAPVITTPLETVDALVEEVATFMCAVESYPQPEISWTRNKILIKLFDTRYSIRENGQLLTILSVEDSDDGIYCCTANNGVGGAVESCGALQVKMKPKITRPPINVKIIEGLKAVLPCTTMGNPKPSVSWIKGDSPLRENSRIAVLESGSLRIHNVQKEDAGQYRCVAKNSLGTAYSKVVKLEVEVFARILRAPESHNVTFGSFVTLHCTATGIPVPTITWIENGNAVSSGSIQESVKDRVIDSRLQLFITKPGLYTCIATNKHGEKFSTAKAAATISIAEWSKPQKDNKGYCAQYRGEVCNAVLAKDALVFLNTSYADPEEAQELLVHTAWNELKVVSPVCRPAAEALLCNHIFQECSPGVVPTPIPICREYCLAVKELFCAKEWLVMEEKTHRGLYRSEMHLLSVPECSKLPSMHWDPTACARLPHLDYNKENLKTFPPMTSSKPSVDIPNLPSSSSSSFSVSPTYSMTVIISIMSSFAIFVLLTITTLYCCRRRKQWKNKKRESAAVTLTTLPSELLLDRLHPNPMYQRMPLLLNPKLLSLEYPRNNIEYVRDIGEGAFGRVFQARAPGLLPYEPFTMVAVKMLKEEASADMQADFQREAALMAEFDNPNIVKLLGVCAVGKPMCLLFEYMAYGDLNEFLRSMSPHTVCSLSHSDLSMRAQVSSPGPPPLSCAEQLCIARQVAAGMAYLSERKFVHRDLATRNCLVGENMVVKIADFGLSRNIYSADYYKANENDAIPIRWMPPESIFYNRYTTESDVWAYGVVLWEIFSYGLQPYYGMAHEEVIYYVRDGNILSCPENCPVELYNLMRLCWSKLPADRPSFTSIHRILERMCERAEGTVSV
Procedure: as §1, §2

FRK = biological target: T11, FRK (Homo sapiens, UniProt P42685)
T11 construct: purchased Ambit Biosciences (KINOMEscan)
Procedure: as §1, §2

T4 sequence (P49759 whole entry): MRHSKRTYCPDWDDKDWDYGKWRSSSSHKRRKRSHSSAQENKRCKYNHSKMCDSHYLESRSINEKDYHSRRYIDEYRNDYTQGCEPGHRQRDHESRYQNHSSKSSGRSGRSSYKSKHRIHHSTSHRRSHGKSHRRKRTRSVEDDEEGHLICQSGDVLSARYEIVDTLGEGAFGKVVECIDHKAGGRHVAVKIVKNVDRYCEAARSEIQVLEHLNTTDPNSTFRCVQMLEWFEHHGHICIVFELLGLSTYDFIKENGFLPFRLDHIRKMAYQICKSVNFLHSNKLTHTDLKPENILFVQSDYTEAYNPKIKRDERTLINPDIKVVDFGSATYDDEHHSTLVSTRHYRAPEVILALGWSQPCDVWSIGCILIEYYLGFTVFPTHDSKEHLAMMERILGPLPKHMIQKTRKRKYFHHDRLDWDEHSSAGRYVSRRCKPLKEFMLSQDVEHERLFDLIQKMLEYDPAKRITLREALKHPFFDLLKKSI
T1 sequence (Q9Y6M4 whole entry): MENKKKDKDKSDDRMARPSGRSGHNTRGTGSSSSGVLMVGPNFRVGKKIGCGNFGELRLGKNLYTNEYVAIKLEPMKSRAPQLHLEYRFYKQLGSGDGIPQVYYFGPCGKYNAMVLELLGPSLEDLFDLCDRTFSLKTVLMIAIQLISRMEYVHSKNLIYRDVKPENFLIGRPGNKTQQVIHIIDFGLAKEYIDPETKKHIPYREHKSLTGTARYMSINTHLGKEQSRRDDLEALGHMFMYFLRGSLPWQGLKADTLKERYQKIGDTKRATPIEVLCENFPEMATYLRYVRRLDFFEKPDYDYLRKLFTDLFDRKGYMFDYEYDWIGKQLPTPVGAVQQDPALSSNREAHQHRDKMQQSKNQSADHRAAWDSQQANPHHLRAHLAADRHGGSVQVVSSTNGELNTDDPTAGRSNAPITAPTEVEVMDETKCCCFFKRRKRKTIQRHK
T11 sequence (P42685 whole entry): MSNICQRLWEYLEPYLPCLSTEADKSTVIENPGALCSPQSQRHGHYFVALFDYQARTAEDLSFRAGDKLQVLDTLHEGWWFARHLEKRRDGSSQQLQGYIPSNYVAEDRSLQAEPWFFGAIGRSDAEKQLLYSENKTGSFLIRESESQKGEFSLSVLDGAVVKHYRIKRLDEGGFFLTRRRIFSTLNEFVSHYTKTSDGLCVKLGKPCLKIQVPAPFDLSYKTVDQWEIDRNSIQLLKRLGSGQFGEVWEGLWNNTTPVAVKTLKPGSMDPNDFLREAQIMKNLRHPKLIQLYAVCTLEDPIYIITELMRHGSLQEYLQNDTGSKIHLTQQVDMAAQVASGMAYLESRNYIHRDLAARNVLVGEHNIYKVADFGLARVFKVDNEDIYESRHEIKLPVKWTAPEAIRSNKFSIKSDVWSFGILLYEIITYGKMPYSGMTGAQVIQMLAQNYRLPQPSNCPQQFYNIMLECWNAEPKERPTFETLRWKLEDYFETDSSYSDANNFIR
T2 sequence (Q96NX5 whole entry): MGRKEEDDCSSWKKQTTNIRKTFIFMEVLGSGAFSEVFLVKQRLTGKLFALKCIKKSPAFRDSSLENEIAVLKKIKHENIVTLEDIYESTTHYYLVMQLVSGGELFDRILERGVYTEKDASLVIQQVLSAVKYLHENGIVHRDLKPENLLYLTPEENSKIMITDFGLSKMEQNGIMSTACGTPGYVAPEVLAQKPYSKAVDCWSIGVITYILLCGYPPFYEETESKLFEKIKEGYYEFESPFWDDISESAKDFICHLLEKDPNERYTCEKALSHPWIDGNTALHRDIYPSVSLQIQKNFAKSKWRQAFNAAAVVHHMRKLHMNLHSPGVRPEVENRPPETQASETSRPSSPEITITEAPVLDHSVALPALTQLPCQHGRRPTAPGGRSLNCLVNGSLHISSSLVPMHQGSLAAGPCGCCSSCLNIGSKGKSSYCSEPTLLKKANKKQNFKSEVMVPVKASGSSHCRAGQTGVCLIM
T7 sequence (Q9H2G2 whole entry): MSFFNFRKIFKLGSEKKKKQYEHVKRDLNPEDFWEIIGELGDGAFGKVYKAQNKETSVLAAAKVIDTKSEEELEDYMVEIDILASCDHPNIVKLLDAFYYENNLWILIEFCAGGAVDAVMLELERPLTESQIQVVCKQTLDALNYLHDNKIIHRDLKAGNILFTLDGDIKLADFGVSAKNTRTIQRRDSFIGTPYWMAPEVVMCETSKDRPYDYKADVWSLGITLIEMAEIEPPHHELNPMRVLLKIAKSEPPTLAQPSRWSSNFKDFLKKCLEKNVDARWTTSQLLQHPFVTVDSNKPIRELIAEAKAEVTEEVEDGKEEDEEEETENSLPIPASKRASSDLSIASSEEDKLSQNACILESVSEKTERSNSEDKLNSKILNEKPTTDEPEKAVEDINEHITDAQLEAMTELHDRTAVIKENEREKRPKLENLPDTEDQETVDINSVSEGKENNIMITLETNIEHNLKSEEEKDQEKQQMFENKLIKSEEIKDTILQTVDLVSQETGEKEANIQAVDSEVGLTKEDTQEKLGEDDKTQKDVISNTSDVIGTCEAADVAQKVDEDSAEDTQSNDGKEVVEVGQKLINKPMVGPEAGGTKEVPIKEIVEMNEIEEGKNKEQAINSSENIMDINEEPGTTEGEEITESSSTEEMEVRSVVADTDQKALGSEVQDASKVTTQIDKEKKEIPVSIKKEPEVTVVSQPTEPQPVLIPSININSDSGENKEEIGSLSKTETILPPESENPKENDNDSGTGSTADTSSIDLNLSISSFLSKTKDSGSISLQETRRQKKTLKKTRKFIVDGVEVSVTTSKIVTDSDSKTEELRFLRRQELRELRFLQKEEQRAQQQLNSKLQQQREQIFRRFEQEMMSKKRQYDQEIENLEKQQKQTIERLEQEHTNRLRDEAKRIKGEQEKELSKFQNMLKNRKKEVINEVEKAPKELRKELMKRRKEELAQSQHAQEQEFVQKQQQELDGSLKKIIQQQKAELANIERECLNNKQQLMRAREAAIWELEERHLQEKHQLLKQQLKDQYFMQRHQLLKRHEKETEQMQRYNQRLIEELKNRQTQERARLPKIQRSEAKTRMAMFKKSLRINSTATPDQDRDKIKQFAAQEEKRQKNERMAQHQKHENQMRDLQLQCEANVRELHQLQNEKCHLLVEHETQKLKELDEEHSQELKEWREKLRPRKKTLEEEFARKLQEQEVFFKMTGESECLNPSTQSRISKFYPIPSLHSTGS
T5 sequence (Q8TDR2 whole entry): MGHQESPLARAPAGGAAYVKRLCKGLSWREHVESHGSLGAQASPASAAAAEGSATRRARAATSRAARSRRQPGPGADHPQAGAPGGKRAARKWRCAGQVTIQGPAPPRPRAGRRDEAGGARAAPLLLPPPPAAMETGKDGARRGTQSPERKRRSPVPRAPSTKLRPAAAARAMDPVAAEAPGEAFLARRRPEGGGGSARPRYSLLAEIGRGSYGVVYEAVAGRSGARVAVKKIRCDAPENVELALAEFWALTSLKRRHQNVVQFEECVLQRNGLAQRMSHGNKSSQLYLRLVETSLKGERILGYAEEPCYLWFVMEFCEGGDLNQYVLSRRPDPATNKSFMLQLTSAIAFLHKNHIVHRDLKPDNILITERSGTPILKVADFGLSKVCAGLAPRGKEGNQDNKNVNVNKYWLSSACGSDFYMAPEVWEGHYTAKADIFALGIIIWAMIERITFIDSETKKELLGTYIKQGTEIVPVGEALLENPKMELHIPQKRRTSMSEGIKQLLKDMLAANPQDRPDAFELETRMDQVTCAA

With `Fc1ccc(-c2c(-c3ccncc3)[nH]c3nccnc23)cc1` [Compound 122] the “% Competition” value (CSNK1G3) was 86%, the competition (CAMKIγ) was < 50% and the competition (CAMK4) was < 50%. For the same compound, the inhibition at 10 µM (CLK1; CLK1, 10 µM, read-out: % Competition) was 97%, the inhibition at 10 µM (STK35; STK35, 10 µM, read-out: % Competition) was 79% and the inhibition at 10 µM (TNNI3K; TNNI3K, 10 µM, read-out: % Competition) was 67%. The inhibition at 10 µM (SLK; SLK, 10 µM, read-out: % Competition) was 80%, the “% Competition” value [1] was 98% and the “% Competition” value [2] was 95%. The inhibition at 10 µM (MUSK; MUSK, 10 µM, read-out: % Competition) was 94% and the inhibition at 10 µM (FRK; FRK, 10 µM, read-out: % Competition) was 85%.
With `CC(O)CNc1cc(-c2[nH]c3cccnc3c2-c2ccc(F)cc2)ccn1` (stereo not drawn) [Compound 140] the “% Competition” value (CSNK1G3) was 91%, the competition (CAMKIγ) was < 50% and the competition (CAMK4) was < 50%. For the same compound, the inhibition at 10 µM (CLK1; read-out: % Competition) was < 50%, the inhibition at 10 µM (STK35; read-out: % Competition) was < 50% and the inhibition at 10 µM (TNNI3K; read-out: % Competition) was < 50%. The inhibition at 10 µM (SLK; read-out: % Competition) was < 50%, the “% Competition” value [1] was 90% and the “% Competition” value [2] was 84%. For the same compound, the inhibition at 10 µM (MUSK; read-out: % Competition) was < 50% and the inhibition at 10 µM (FRK; read-out: % Competition) was < 50%.
For `Fc1ccc(-c2c(-c3ccncc3)[nH]c3nccnc23)cc1` [RO1155697-000-005], the “Percent Competition” value (CSNK1G3; compound concentration 10 uM) was 86%, the inhibition at 10 µM (CAMKIγ; CAMK1G, compound concentration 10 uM, read-out: Percent Competition) was < 50% and the inhibition at 10 µM (CAMK4; compound concentration 10 uM, read-out: Percent Competition) was < 50%. It also gave an inhibition at 10 µM (CLK1; CLK1, compound concentration 10 uM, read-out: Percent Competition) of 97%, an inhibition at 10 µM (STK35; STK35, compound concentration 10 uM, read-out: Percent Competition) of 79% and an inhibition at 10 µM (TNNI3K; TNNI3K, compound concentration 10 uM, read-out: Percent Competition) of 67%. The inhibition at 10 µM (SLK; SLK, compound concentration 10 uM, read-out: Percent Competition) was 80%, the “Percent Competition” value ([1]; compound concentration 10 uM) was 98% and the “Percent Competition” value ([2]; compound concentration 10 uM) was 95%. The inhibition at 10 µM (MUSK; MUSK, compound concentration 10 uM, read-out: Percent Competition) was 94% and the inhibition at 10 µM (FRK; FRK, compound concentration 10 uM, read-out: Percent Competition) was 85%.

— article PMC3445516 (PLoS ONE, 2012)
